A short description of this series: method code SF, from DOI: 10.1021/jm201475u, PMID: 22339047. Particulars: for logD: pH 7.4.

Data on 22 compounds can be found in the SangsterLogP compilation.

Structures are written as SMILES.

Compound `Cc1cc(=O)c(O)c(F)[nH]1` came in with a logD of 0.25.
As to `O=c1cc[nH]c(C(F)(F)F)c1O`, the logP was found to be 0.87.
Turning to `CCCCn1ccc(=O)c(O)c1F`, the logP was 0.38.
Take `CCn1cc(O)c(=O)c(F)c1`: the logP was -0.89.
Take `Cc1c(O)c(=O)c(F)cn1C`: the logP was -0.8.
The compound `CCCn1cc(O)c(=O)c(F)c1` returned a logP of -0.46.
`Cc1[nH]c(F)c(O)c(=O)c1C` displayed a logD of 1.07.
Consider `O=c1cc[nH]c(C(O)C(F)(F)F)c1O` (configuration not stated), for which the logP stood at 0.14.
The compound `Cc1c[nH]c(F)c(O)c1=O` gave a logD of 0.5.
Regarding `CCCn1ccc(=O)c(O)c1F`, the logP is -0.08.
In turn, `CC(C)n1ccc(=O)c(O)c1F` yielded a logP of -0.41.
For `Cn1ccc(=O)c(O)c1C(F)(F)F`, the logP was -0.45.
For `CCc1c(O)c(=O)ccn1CC`, the logD was 0.23.
With `Cn1cc(O)c(=O)c(F)c1`, the logP is -1.32.
Turning to `Cc1cn(C)c(F)c(O)c1=O`, the logP is -0.65.
For `CCn1ccc(=O)c(O)c1F`, the logP was -0.58.
`Cc1[nH]cc(F)c(=O)c1O`: the logP stood at 0.
The compound `O=c1c(O)c(F)[nH]c(F)c1F` yielded a logP of 1.7.
As for `CC(C)n1cc(O)c(=O)c(F)c1`, the logP was -0.92.
As for `O=c1cc(F)[nH]c(F)c1O`, the logP came to 1.35.
`O=c1cc[nH]c(F)c1O`: the logD was -0.21.
For the compound `Cn1ccc(=O)c(O)c1F`, the logP was -0.97.
